The structures appear in SMILES notation. Where two headings read alike, the source gives them in different places.

The subject of series [1] is MCF7 breast carcinoma cells. Put plainly: Cell proliferation and viability, Trypan blue exclusion assay. Format: cell-based. Conditions: 48 h. In outline:
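Cells seeded overnight in 10% FCS, then exposed to LCL compounds at 0-20 μM in ethanol (below 0.1%) for 48 h. Viable cell numbers counted by Trypan blue exclusion under light microscope, expressed as percentage of untreated controls; duplicate samples, two or three independent experiments.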

A further series concerns UM-SCC-22A cells. As to conditions: 1 μM.
In a further series the test system is UM-SCC-14A cells. As to conditions: read-out: IC50, growth; UM-SCC14A, 48 hr.
For series [2] the following is noted: IP 40 mg/ml.
Description: The determination of MTD, and pharmacokinetic parameters, such as clearance from the serum, and bioaccumulation in various organs, of L-t-C6-Pyr-Cer in vivo. A) MTD of L-t-C6-Pyr-Cer was determined in dose escalation studies, in which BALB/c mice were treated (by IP injections) with increasing concentrations of the compound (10-150 mg/kg), dissolved in sterile saline solution, for 24 hr. […] B and C) The levels of L-t-C6-Pyr-Cer in the serum (B) or in the vital organs (C) of the BALB/c mice were measured by LC/MS after IP injection of the compound for various time points. The experiments were performed in two independent trials as duplicates, and error bars represent standard deviations.
Animal studies. […] The maximum tolerated dose (MTD) of L-t-C6-Pyr-Cer was determined by dose escalation studies. In short, 7-week-old BALB/c mice were treated with increasing concentrations of the compound for various time intervals. Possible toxicity of the compound to the vital organs of the animals was analyzed by both gross examination, and histopathology. The accumulation of the compound in vital organs and in the serum was also determined by LC/MS as described previously Koybasi S et al. J Biol Chem 2004; 279:44311-44319).

Description for UM-SCC-14A cells: Cells were grown in DMEM containing 10% FCS and 1% penicillin/streptomycin at 37° C. in 5% CO2.
MTT cell survival assay and isobologram studies. The concentrations of agents that inhibited cell growth by 50% (IC50) were determined from cell survival plots obtained by MTT assays. […] A straight line joining points on x- and y-axes represent the IC50 concentrations of GMZ and L-t-C6-Pyr-Cer alone, and the points representing the IC50 concentrations of the combination of the two agents are represented as scatter plots on the same graphs. […] The experiments were performed as triplicates in at least 3 independent experiments.
Description for UM-SCC-22A cells: B) The subcellular accumulation of L-t-C6-Pyr-Cer at 1-48 hr was detected by LC/MS in UM-SCC-22A cells after differential centrifugation, as described in Materials and Methods.
Subcellular fractionation, and the analysis of ceramide subspecies by mass spectroscopy (MS). The sub-cellular accumulation of L-t-C6-Pyr-Cer was analyzed by utilizing normal phase high performance liquid chromatography and mass spectroscopy (LC/MS). […] In short, cells were incubated in a buffer containing 300 mM sucrose, 10 mM Hepes (pH 7.4), 1 mM EDTA and 0.5 mM PMSF for 30 minutes on ice. The cells were then passed through 25-gauge needle for 5 strokes, and centrifuged at 1,000×g for 10 mM, 10,000×g for 10 min, and 100,000×g for 60 min at 4° C., for collection of the nuclei-, mitochondria-enriched fractions, and microsomes, respectively.

As usually defined, the IC50 is the midpoint of a concentration-inhibition curve. As for `CCCCCCCCCCCCC/C=C/[C@H](O)[C@H](CO)NC(=O)CCCCC[n+]1ccccc1.[Br-]` [LCL124, L-threo-2-N-[6′-(1″-Pyridinium)-hexanoyl]-sphingosine Bromide], the “inhibitory effect on MCF7 cell growth (in words)” value in series [1] is “caused inhibitory effect on MCF7 cell growth”. Also, the “amount in supernatant or pellet of 100,000×g fractions” value with UM-SCC-22A cells is “either not detectable (at 1-6 hr), or minimal (at 12-48 hr)”. The “level in the 10,000×g (mitochondria enriched) fraction” value with UM-SCC-22A cells (3-48 hr) is reported as 1,000-3,000 pmol/0.1 mg protein. The “level in the 1,000×g (nuclei enriched) fraction” value in the series on UM-SCC-22A cells (6-48 hr) was 250-2,500 pmol/0.1 mg protein. In addition, in the series on UM-SCC-14A cells, the IC50 was 1000 to 2000 nM. Besides, the “accumulation in the brain or heart” value in series [2] is listed as “no significant accumulation”. Further, the “accumulation in the kidneys” value in series [2] was “at high levels in the kidneys within 8-24 hr”. In addition, the “time to clearance from the serum” value in series [2] is at most 4 h. For the same compound, the results for the serum level in series [2] (0.5 hr) and in series [2] (2 hr) were 4,500 pmol/0.1 ml serum and 6,500 pmol/0.1 ml serum, respectively. Further, the “level in the intestines” value in series [2] (after 5 min) was “about 600 pmol/mg protein”, the “level in the intestines” value (absence of GMZ) is listed as “about 120 pmol/mg protein” and the “level in the intestines” value (presence of GMZ) is 1,000 pmol/mg protein. Further, the “level in the liver” value in series [2] (after 2 hr) is given as about 500 pmol/mg protein, the “level in the liver” value (absence of GMZ) is about 100 pmol/mg protein and the “level in the liver” value (presence of GMZ) is listed as 300 pmol/mg protein. Also, the “accumulation in the lungs” value in series [2] (after 24 hr) was “some accumulation”. Moreover, the “fold higher level in tumors than in intestines or liver” value (absence or presence of GMZ) is listed as 3-6 fold. Further, the “level in the tumors” value (combined with GMZ) is 3,100 pmol/mg. Further, the “increase of level in the tumors when combined with GMZ” value (mouse, in vivo) is recorded as “about 40%”. Besides, for the setting “single agent”, the “accumulation in the tumor site” value is “about 2,200 pmol/mg”.

(Values after US8093393B2, “Cationic ceramides, and analogs thereof, and their use for preventing or treating cancer” (MUSC Foundation for Research Development, priority 2004, dated 2012).)
